ChEMBL document CHEMBL5291721, “A preclinical secondary pharmacology resource illuminates target-adverse drug reaction associations of marketed drugs” (Nat Commun, 2023)

Legend:
[1] = biological target: Beta-1 adrenergic receptor (Homo sapiens, UniProt P08588); assay type: functional
[2] = biological target: T1, Type-1 angiotensin II receptor (Homo sapiens, UniProt P30556)
T1 sequence (P30556 whole entry): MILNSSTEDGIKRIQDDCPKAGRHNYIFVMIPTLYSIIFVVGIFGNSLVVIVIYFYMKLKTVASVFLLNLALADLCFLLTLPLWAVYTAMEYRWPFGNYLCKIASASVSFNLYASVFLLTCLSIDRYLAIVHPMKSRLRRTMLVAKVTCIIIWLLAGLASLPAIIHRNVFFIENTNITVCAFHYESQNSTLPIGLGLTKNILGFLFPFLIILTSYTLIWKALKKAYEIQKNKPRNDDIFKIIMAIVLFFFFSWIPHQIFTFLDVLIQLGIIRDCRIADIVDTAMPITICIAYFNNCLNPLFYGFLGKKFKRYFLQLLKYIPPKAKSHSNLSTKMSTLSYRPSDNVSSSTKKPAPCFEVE

B2 bradykinin receptor = biological target: T2, B2 bradykinin receptor (Homo sapiens, UniProt P30411)
T2 sequence (P30411 whole entry): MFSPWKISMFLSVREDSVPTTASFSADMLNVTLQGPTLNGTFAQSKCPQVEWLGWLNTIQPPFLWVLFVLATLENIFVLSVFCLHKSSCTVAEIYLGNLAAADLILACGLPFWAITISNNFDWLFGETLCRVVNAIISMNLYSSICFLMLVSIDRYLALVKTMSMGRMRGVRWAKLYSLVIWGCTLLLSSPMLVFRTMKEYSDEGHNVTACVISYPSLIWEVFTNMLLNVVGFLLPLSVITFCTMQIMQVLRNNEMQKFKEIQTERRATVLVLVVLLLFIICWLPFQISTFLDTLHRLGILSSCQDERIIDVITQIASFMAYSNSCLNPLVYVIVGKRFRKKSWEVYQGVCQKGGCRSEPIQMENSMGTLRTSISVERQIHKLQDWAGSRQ

[3] = biological target: Voltage-dependent L-type calcium channel subunit alpha-1C (Rattus norvegicus, UniProt P22002); assay type: functional
[4] = biological target: T3, Gastrin/cholecystokinin type B receptor (Homo sapiens, UniProt P32239)
T3 sequence (P32239 whole entry): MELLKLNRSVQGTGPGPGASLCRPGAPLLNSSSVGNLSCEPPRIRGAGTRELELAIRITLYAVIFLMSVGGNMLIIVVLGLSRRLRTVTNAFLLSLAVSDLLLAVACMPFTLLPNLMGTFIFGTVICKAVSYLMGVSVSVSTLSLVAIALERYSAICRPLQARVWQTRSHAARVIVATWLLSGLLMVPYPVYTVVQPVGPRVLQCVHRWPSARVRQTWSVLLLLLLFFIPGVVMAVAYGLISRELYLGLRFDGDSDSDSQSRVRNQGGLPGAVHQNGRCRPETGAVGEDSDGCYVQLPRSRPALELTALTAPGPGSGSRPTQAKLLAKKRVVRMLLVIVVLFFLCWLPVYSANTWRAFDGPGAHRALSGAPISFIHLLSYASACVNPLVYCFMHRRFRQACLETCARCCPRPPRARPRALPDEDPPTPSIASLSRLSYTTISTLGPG

Endothelin-1 receptor = biological target: T4, Endothelin-1 receptor (Homo sapiens, UniProt P25101)
T4 sequence (P25101 whole entry): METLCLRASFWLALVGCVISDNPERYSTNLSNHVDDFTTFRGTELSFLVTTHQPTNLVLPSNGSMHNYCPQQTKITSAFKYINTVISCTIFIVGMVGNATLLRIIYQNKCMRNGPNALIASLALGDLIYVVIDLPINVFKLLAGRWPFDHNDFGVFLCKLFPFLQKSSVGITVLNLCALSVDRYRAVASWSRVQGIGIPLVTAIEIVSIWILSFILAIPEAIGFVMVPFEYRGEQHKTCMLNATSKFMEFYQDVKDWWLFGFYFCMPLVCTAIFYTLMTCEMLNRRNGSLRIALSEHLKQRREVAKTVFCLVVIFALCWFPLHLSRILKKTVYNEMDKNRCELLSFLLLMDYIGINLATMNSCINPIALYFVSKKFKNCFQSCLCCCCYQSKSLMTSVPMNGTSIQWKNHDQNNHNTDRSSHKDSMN

[5] = biological target: 5-hydroxytryptamine receptor 2A (Homo sapiens, UniProt P28223); assay type: functional, cell-based
[6] = biological target: T5, Equilibrative nucleoside transporter 1 (Homo sapiens, UniProt Q99808)
T5 sequence (Q99808 whole entry): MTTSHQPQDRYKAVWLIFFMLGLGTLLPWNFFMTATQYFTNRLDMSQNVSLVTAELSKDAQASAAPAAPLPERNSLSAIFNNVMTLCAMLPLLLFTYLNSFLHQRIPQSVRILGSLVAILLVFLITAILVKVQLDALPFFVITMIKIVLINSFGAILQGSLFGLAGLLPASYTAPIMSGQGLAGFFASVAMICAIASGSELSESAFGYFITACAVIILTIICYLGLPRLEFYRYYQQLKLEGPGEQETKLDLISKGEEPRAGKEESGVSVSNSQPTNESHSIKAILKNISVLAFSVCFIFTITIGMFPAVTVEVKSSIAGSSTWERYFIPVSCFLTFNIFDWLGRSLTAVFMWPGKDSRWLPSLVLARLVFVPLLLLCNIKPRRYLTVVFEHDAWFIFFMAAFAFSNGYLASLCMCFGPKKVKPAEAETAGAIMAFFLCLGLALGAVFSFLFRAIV

Thromboxane A2 receptor = biological target: T6, Thromboxane A2 receptor (Homo sapiens, UniProt P21731)
T6 sequence (P21731 whole entry): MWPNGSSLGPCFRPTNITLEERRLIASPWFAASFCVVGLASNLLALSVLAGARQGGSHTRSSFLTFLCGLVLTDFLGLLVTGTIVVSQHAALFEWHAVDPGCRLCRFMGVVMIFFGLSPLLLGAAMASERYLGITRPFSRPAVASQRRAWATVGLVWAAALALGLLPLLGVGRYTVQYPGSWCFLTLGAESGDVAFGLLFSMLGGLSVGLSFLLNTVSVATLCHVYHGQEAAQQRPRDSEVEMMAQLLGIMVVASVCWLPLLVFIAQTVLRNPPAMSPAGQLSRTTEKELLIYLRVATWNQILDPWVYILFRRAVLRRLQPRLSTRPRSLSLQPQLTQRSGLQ

Measured: AC50
Further: assay procedure not described here.

Sequence of 5-hydroxytryptamine receptor 2A (P28223 whole entry): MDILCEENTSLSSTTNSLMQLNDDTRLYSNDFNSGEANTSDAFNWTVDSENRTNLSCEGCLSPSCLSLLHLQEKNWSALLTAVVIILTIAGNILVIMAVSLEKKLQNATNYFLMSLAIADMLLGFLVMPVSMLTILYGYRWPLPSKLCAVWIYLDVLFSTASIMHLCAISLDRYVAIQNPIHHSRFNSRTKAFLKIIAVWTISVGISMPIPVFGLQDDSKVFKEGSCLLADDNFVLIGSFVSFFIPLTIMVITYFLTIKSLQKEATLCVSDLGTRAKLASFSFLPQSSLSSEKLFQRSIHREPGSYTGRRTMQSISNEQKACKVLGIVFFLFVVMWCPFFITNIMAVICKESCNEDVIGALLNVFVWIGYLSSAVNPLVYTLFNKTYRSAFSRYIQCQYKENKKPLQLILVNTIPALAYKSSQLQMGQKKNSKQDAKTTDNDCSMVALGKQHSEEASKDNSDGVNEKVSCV
Sequence of Beta-1 adrenergic receptor (P08588 whole entry): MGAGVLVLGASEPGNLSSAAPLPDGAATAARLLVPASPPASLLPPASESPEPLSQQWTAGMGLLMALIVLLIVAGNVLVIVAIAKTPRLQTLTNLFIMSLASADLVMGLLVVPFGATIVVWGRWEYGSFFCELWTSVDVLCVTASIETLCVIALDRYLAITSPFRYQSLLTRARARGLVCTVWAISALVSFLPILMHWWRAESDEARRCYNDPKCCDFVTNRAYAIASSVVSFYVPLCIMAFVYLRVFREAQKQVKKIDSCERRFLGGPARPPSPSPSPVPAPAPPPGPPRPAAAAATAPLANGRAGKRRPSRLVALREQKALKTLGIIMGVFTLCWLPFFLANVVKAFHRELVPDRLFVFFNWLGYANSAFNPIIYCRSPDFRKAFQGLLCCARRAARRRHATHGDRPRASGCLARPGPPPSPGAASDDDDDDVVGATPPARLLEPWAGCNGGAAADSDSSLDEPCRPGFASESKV
Sequence of Voltage-dependent L-type calcium channel subunit alpha-1C (P22002 whole entry): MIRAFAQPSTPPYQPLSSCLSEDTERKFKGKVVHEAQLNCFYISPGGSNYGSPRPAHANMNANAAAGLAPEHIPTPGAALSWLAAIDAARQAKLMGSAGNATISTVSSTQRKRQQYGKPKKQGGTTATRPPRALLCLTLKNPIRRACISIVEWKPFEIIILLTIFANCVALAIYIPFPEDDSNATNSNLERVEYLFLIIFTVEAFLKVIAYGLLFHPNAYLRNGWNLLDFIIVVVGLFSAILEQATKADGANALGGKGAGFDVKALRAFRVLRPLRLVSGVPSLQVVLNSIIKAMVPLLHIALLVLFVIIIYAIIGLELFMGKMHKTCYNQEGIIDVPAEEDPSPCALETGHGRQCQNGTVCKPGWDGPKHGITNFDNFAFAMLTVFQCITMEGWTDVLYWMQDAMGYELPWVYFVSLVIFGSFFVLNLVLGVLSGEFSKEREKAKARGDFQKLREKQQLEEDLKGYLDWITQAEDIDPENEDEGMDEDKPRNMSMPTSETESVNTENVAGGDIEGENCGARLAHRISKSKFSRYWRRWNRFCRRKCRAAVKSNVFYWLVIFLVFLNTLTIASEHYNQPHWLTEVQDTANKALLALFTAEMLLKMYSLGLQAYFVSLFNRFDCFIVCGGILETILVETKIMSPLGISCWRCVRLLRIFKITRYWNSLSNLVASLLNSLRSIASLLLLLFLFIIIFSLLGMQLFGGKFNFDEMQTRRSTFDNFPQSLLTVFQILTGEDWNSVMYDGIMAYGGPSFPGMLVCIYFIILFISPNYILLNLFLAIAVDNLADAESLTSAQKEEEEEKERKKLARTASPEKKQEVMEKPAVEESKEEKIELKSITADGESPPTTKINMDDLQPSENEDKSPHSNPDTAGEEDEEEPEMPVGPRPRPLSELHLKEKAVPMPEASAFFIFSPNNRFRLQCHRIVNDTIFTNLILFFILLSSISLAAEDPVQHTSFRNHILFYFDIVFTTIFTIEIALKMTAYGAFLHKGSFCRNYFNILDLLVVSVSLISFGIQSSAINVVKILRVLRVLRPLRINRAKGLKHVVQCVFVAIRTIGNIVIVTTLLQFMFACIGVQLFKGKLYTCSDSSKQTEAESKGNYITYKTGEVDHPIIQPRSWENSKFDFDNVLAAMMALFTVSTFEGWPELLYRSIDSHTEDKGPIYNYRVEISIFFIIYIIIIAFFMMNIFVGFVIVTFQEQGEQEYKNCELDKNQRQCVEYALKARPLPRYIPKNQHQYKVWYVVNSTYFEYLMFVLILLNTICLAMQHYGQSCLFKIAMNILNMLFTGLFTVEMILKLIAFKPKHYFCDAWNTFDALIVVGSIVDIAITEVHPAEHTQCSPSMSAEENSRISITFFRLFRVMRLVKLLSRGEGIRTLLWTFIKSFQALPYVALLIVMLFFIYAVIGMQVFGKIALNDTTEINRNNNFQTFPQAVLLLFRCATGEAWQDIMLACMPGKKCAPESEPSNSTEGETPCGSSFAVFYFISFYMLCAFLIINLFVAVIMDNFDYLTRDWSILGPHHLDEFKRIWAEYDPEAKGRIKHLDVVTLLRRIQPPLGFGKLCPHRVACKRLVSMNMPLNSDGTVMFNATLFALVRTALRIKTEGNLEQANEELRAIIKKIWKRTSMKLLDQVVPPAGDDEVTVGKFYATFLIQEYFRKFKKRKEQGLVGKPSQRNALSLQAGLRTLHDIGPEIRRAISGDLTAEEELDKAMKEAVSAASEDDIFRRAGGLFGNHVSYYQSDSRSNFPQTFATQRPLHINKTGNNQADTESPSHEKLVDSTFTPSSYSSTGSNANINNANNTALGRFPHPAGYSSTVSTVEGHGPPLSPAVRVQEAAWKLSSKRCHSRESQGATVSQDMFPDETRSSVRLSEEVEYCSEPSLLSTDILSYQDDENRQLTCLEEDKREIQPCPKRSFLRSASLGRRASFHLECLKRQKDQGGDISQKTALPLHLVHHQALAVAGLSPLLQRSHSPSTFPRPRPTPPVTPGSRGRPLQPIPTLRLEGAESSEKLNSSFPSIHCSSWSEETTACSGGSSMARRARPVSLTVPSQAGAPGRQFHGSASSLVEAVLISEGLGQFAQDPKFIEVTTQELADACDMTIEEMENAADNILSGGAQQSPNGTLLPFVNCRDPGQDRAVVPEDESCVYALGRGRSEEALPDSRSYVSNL

CC(C)(N)Cc1ccc(Cl)cc1 [CHLORPHENTERMINE]
> 10 µM: [1] | [3]
> 30 µM: all other assays above

C=C1C[C@@H]2[C@H](CC[C@]3(C)C(=O)CC[C@@H]23)[C@@]2(C)C=CC(=O)C=C12 [EXEMESTANE]
> 10 µM: [1] | [3]
> 30 µM: all other assays above

CN(CCCN1c2ccccc2CCc2ccccc21)CC(=O)c1ccc(Cl)cc1 [LOFEPRAMINE]
2.4 µM: [3]
6.6 µM: [5]
> 10 µM: B2 bradykinin receptor
> 30 µM: all other assays above

O=C(O)CCn1c2c(c3ccccc31)C[C@H](NS(=O)(=O)c1ccc(F)cc1)CC2 [RAMATROBAN]
0.0311 µM: Thromboxane A2 receptor
> 10 µM: [3] | Endothelin-1 receptor | [5]
> 30 µM: all other assays above
